Results on four molecules are retold here after patent US9901579B2, “Compositions comprising phosphodiesterase inhibitors for use in the treatment of a solid tumor in a human patient” (Sartar Therapeutics Ltd, priority 2013, dated 2018).

Type in all cases: cell-based, human
Experiment [1] deals with GIST cell cultures (GIST48 and GIST882). Kind of experiment: xCELLigence System / RTCA DP proliferation analysis. The following applies: 10 μmol/L or higher concentration. From the text: Four different PDE3-inhibitors were used to block the activity of PDE3 enzymes and two kinase-inhibitors to block the activity of KIT and PDGFRA. Cilostazol, milrinone and amrinone were purchased from Sigma (St Louis, Mo., USA) and anagrelide hydrochloride was purchased from Tocris Bioscience (Bristol, UK). […] All other inhibitors were reconstituted in DMSO. In a preliminary analysis, multiple drug concentrations (from 0 to 100 μmol/L) were used to identify effective PDE3 inhibitor doses in the GIST cell lines. Effects on proliferation were analysed using xCELLigence System and the RTCA DP instrument (Acea Biosciences, San Diego, Calif., USA). […] Cell progression to apoptosis after anagrelide hydrochloride treatment was analysed in eight duplicate wells with a Click-iT TUNEL Alexa Fluor 488 Imaging Assay (Invitrogen, Carlsbad, Calif., USA) according to the manufacturer's instructions. Progression to apoptosis was measured after 48 hours and after 96 hours of drug treatments. Cell proliferation was examined by the MTT assay (Roche Diagnostics, Indianapolis, Ind., USA) and the xCELLigence System using the RTCA DP instrument (Acea Biosciences). […] At the end of the incubation, cell proliferation was analyzed from eight duplicate wells by adding 10 μL of the MTT reagent into each well and incubating at 37° C. for four hour. The plates were read with a Multiscan EX Microplate photometer (Thermo Scientific, Rockford, Ill., USA) at the wavelength of 540 nm. For the xCELLigence proliferation assay GIST48 and GIST882 cells were plated at a density of 2.5×10^4 cells/well. Before plating GIST882 cells, the wells were thin coated with Collagen I Rat Tail (Invitrogen, Carlsbad, Calif., USA) according to the manufacturer's instructions using 7.5 μg/mL final collagen concentration.

Experiment [2] has as its system GIST882 cells. Kind of experiment: MTT cell proliferation assay, GIST882. The settings on record: 10 μmol/L, 96 hours (four day culture). Here is the method: (§1) GIST882 is a primary human GIST cell line with a homozygous missense mutation in KIT exon 13, encoding a […] mutant KIT oncoprotein (Tuveson, D. A. 2001). […] GIST48 has a primary exon 11 missense mutation and a secondary exon 17 missense mutation (Bauer, S. 2006). LPS141 is a liposarcoma cell line that is established from patient derived de-differentiated liposarcoma (Snyder, E. L. 2009). The cell lines were cultured in a RPMI 1640 medium (GIBCO, California USA) supplemented with 20% fetal bovine serum (FBS) and 2% penicillin/streptomycin. Four different PDE3-inhibitors were used to block the activity of PDE3 enzymes and two kinase-inhibitors to block the activity of KIT and PDGFRA. […] Effects on proliferation were analysed using xCELLigence System and the RTCA DP instrument (Acea Biosciences, San Diego, Calif., USA). […] Cell progression to apoptosis after anagrelide hydrochloride treatment was analysed in eight duplicate wells with a Click-iT TUNEL Alexa Fluor 488 Imaging Assay (Invitrogen, Carlsbad, Calif., USA) according to the manufacturer's instructions. Progression to apoptosis was measured after 48 hours and after 96 hours of drug treatments. […] At the end of the incubation, cell proliferation was analyzed from eight duplicate wells by adding 10 μL of the MTT reagent into each well and incubating at 37° C. for four hour. […]
A general note: Tetrazolium assays rely on reduction of a dye to a coloured formazan, in cell work by metabolically active cells.

Experiment [3] relates to LPS141 liposarcoma cell line. Kind of experiment: MTT cell proliferation assay, LPS141. The settings on record: 10 μmol/L, 96 hours (four day culture). The protocol: as §1
For experiment [4], the system named is GIST882 cells. Kind of experiment: Click-iT TUNEL apoptosis assay, GIST882. The settings on record: anagrelide hydrochloride 10 μmol/L, imatinib 0.5 μmol/L. The protocol: (§2) GIST882 is a primary human GIST cell line with a homozygous missense mutation in KIT exon 13, encoding a […] mutant KIT oncoprotein (Tuveson, D. A. 2001). […] GIST48 has a primary exon 11 missense mutation and a secondary exon 17 missense mutation (Bauer, S. 2006). LPS141 is a liposarcoma cell line that is established from patient derived de-differentiated liposarcoma (Snyder, E. L. 2009). The cell lines were cultured in a RPMI 1640 medium (GIBCO, California USA) supplemented with 20% fetal bovine serum (FBS) and 2% penicillin/streptomycin. Four different PDE3-inhibitors were used to block the activity of PDE3 enzymes and two kinase-inhibitors to block the activity of KIT and PDGFRA. Cilostazol, milrinone and amrinone were purchased from Sigma (St Louis, Mo., USA) and anagrelide hydrochloride was purchased from Tocris Bioscience (Bristol, UK). […] All other inhibitors were reconstituted in DMSO. […] Effects on proliferation were analysed using xCELLigence System and the RTCA DP instrument (Acea Biosciences, San Diego, Calif., USA). […] Cell progression to apoptosis after anagrelide hydrochloride treatment was analysed in eight duplicate wells with a Click-iT TUNEL Alexa Fluor 488 Imaging Assay (Invitrogen, Carlsbad, Calif., USA) according to the manufacturer's instructions. Progression to apoptosis was measured after 48 hours and after 96 hours of drug treatments.

The subject of experiment [5] is GIST48 cells. Kind of experiment: Click-iT TUNEL apoptosis assay, GIST48. The following applies: for apoptotic GIST48 cells: anagrelide hydrochloride 10 μmol/L, imatinib 0.5 μmol/L. The protocol:
as §2

SMILES strings stand for the structures. Structures can show the parent of a compound that is named as a salt.

As for `Cc1[nH]c(=O)c(C#N)cc1-c1ccncc1` [milrinone], the “anti-proliferative effect on GIST cell cultures” value (“anti-proliferative effect” for short) in experiment [1] was “did not influence cell proliferation”.
As for `Nc1cc(-c2ccncc2)c[nH]c1=O` [amrinone], the “anti-proliferative effect” value in experiment [1] was “some anti-proliferative effect”.
`O=C1CN2Cc3c(ccc(Cl)c3Cl)N=C2N1` [anagrelide hydrochloride, 6,7-dichloro-1,5-dihydroimidazo[2,1-b]quinazolin-2(3H)-one]: the “anti-proliferative effect” value in experiment [1] was “some anti-proliferative effect”. Moreover, the “effect on GIST882 cell growth in comparison with DMSO” value in experiment [2] was “the only PDE3 inhibitor that had an effect”. The “effect on LPS141 cell growth in comparison with DMSO” value in experiment [3] is reported as “the only PDE3 inhibitor that had an effect”. The entries for the “apoptotic GIST882 cells” value in experiment [4] (after 48 hours) and in experiment [4] (after 96 hours) were 22% and 47%, respectively. For the same molecule, the “apoptotic GIST48 cells” value was 0.6% in experiment [5] (after 48 hours) and 1% in experiment [5] (after 96 hours). Besides, the “DNA fragmentation in GIST48 cells” value in experiment [5] (anagrelide hydrochloride treatment) is “only slight DNA fragmentation”.
On to `O=C1CCc2cc(OCCCCc3nnnn3C3CCCCC3)ccc2N1` [cilostazol], for which the “anti-proliferative effect” value in experiment [1] is “did not influence cell proliferation”.
